How the values were obtained:
[1] = system: growth hormone secretion; assay: 14-day continuous intravenous infusion by mechanical pump, 24 hour growth hormone profile; format: in vivo, human; conditions: 10 ng/kg/min intravenous over 14 days, 4 subjects
Experimental: Growth hormone releasing factor was administered by mechanical pump which delivered a dose of 10 ng/kg/min by the intravenous route over 14 days in 4 subjects aged 26 to 31 years. The profile of growth hormone secretion was measured over 24 hours before the initiation of the infusion, on the fourteenth day of the infusion, and two weeks after stopping the infusion.

[2] = system: growth hormone secretion; assay: 6 hour infusion followed by insulin (hypoglycemia) stimulus; format: in vivo, human; conditions: insulin given at the end, compared to hypoglycemia after vehicle infusion
Experimental: (§1) In a most recent study the 6 hour infusion was repeated but insulin was given at the end of the infusion to provide an alternate stimulus (hypoglycemia) for growth hormone secretion compared to hypoglycemia after vehicle infusion. […] Next 24 hour infusions of growth hormone releasing factor were performed and the growth hormone and growth hormone releasing factor secretory profile of a patient were studied with ectopic growth hormone releasing factor secretion (Vance et al, J. Clin. Invest., 1985, 75, 1584-1590). In this patient growth hormone secretion was pulsatile despite continuously elevated immunoreactive growth hormone releasing factor levels. To determine if pulsatile growth hormone secretion is maintained in normal subjects, vehicle or growth hormone releasing factor-40, 2 ng/kg/min, was administered to six healthy young men for 24 hours and gave a supramaximal intravenous bolus dose of growth hormone releasing factor-40, 3 μg/kg after 23.5 hours of infusion.

[3] = adverse effects of continuous administration; format: in vivo
[4] = system: growth; conditions: normal rat, cited from earlier work
[5] = system: growth hormone secretion; conditions: cited from earlier work
[6] = system: growth hormone secretion; assay: 24 hour infusion in healthy young men with supramaximal bolus after 23.5 hours; format: in vivo, human; conditions: 2 ng/kg/min for 24 hours, six healthy young men
Experimental: as §1

[7] = system: growth hormone secretion; conditions: after 6 hours infusions of 1, 3.3 and 10 ng/kg/min; cited from earlier work

| Substance | response to a supramaximal dose of growth hormone releasing factor [1] | growth hormone secretion ([1]; measured on fourteenth day of infusion) | serum Insulin Growth Factor-1 (IGF-1) level ([1]; marker of biological activity of growth hormone) | desensitization to growth hormone releasing factor [2] | blood pressure, pulse rate, body temperature [3] | side effects [3] | growth, continuous administration ([4]; continuous administration) | growth, pulsatile administration ([4]; pulsatile administration) | release of growth hormone in response to supramaximal dose at end of infusion ([5]; end of the 6 or 24 hour infusion) | growth hormone secretion over the duration of the infusion ([5]; short-term administration (6-24 hours)) | effect on naturally occuring growth hormone pulses [6] | growth hormone secretion compared to vehicle infusion [6] | pulsatile growth hormone secretion during infusion [6] | growth hormone response to supramaximal bolus at end of infusion [7] |
| --- | --- | --- | --- | --- | --- | --- | --- | --- | --- | --- | --- | --- | --- | --- |
| growth hormone releasing factor | normal or accentuated responses | augmented growth hormone secretion | rise in serum Insulin Growth Factor-1 (IGF-1) level | partial homologous desensitization | No changes in blood pressure, pulse rate, or body temperature | no side effects | does not | accelerates growth | reduced release of growth hormone | stimulates growth hormone secretion intermittently | – | – | – | – |
| growth hormone releasing factor-40 (YADAIFTNSYRKVLGQLSARKLLQDIMSRQQGESNQERGA; Somatoliberin; UniProt P01286 32-71, looked up, fragment) [40 amino acid form of human growth hormone releasing factor] | – | – | – | – | – | – | – | – | – | – | augmentation of naturally occuring growth hormone pulses | greater growth hormone secretion than did vehicle infusion | pulsatile growth hormone secretion was maintained | inversely related to the 6 hour infusion dose |
